According to US7341836B2, “Modified cyclic nucleotide gated ion channels” (The Regents of the University of Colorado, priority 2001, dated 2008):
“Also recorded” adds a separate entry of the source.

Legend:
PDE V = PDE V (UniProt O76074); settings: cited from earlier work
PDE VII = molecular target: T1, PDE VII (UniProt Q9QXQ1); settings: cited from earlier work
T1 sequence (Q9QXQ1 1-446): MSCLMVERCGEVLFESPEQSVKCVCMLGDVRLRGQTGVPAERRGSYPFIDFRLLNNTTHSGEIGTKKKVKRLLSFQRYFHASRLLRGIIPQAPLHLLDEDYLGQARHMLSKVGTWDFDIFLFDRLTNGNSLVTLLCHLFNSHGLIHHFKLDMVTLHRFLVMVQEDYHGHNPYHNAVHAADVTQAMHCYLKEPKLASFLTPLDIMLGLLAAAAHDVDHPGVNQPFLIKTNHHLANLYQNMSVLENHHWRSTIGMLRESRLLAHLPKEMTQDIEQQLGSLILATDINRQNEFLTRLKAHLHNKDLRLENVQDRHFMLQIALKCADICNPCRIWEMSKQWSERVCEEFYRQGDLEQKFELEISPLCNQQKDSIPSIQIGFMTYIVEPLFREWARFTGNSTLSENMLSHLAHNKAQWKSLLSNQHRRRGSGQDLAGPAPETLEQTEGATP

[1] = test system: PDE activity in GH4C1 cells; test: Effect of PDE inhibitors, forskolin and VIP on cAMP levels (Ca2+ influx through CNG channels); type: cell-based, rat; settings: for d(ΔF/F0)/dt: basal cAMP, inhibitor concentration (μM); for d(ΔF/F0)/dt / Ca2+ influx induced by the PDE inhibitor alone (basal cAMP): C460W/E583M channels; for Ca2+ influx induced by the PDE inhibitor alone (basal cAMP): no AC stimulation; for effect on forskolin-induced Ca2+ influx / PDE activity: Δ61-90/C460W/E583M channels, 10 μM forskolin
Procedure, shortened: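 GH4C1 rat pituitary cells expressing high-affinity C460W/E583M or Δ61-90/C460W/E583M CNG channels (adenovirus), with 1 μM nimodipine at time zero; cAMP read as Ca2+ influx rate d(ΔF/F0)/dt. PDE inhibitors or 100 μM IBMX added at 60 s, then 10 μM forskolin or 100 nM VIP at 240 s; mean±SE.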

PDE I = settings: cited from earlier work

CCCCCC[C@@H]([C@@H](C)O)n1cnc2c(N)ncnc21 (racemic) [EHNA]
IC50 (PDE V): > 500 µM
IC50 (PDE VII): > 100 µM
d(ΔF/F0)/dt [1]: 0.0029 ± 0.0011 s⁻¹

CC(C)Cn1c(=O)n(C)c(=O)c2[nH]cnc21 [IBMX, 3-isobutyl-1-methylxanthine]
IC50 (PDE V): 4 to 7 µM
IC50 (PDE VII): 2 to 8 µM
Ca2+ influx induced by the PDE inhibitor alone (basal cAMP) [1]: induced Ca^2+ influx through CNG channels
effect on forskolin-induced Ca2+ influx / PDE activity [1]: significantly inhibited PDE activity; also recorded: increase forskolin-induced Ca^2+ influx through CNG channels
IC50 (PDE I): 2 to 3 µM

CCCCOc1cc(CC2CNC(=O)N2)ccc1OC (stereo not shown) [RO-20-1724, 4-(3-butoxy-4-methoxybenzyl)-2-imidazolidinone]
IC50 (PDE V): 250 µM
IC50 (PDE VII): > 200 µM
Ca2+ influx induced by the PDE inhibitor alone (basal cAMP) [1]: No RO-20-1724- or rolipram-sensitive PDE was observed
d(ΔF/F0)/dt [1]: 0 s⁻¹
effect on forskolin-induced Ca2+ influx / PDE activity [1]: also inhibited PDE activity; also recorded: increase forskolin-induced Ca^2+ influx through CNG channels
IC50 (PDE I): 200 µM

COc1ccc(C2CNC(=O)C2)cc1OC1CCCC1 (stereo not shown) [Rolipram]
IC50 (PDE VII): > 100 µM
Ca2+ influx induced by the PDE inhibitor alone (basal cAMP) [1]: No RO-20-1724- or rolipram-sensitive PDE was observed
d(ΔF/F0)/dt [1]: 0 s⁻¹
effect on forskolin-induced Ca2+ influx / PDE activity [1]: also inhibited PDE activity; also recorded: increase forskolin-induced Ca^2+ influx through CNG channels
IC50 (PDE I): > 150 µM
